Values quoted from earlier work in the PKSmart pharmacokinetics tables (Seal et al. 2025).

Key:
[1] = Lombardo et al. 2013, J Clin Pharmacol 53:178, doi 10.1177/0091270012440282; details: for Vd / clearance: in vivo, iv; for fraction unbound: plasma
[2] = Lombardo, Berellini, Obach 2018, Drug Metab Dispos 46:1466, doi 10.1124/dmd.118.082966; details: human; for MRT / Vd / clearance / half-life: in vivo, iv; for fraction unbound: plasma

Structure (SMILES) | Vd ([1]; dog) [L/kg] | clearance ([1]; dog) [mL/min/kg] | Vd ([1]; rat) [L/kg] | clearance ([1]; rat) [mL/min/kg] | MRT [2] [h] | Vd [2] [L/kg] | clearance [2] [mL/min/kg] | half-life [2] [h] | Vd ([1]; monkey) [L/kg] | fraction unbound ([1]; rat) | fraction unbound ([1]; dog) | clearance ([1]; monkey) [mL/min/kg] | fraction unbound [2] | fraction unbound ([1]; monkey)
O=P1(N(CCCl)CCCl)NCCCO1 (stereo unspecified) | 0.7 | 20 | 0.67 | 11.1 | 11 | 0.73 | 1.1 | 8 | – | – | – | – | – | –
O=C(CCCN1CCC(O)(c2ccc(Cl)cc2)CC1)c1ccc(F)cc1 | 37 | – | 10.4 | – | 36 | 17 | – | 35 | 3.7 | 0.24 | – | – | – | –
CCCN(CCC)S(=O)(=O)c1ccc(C(=O)O)cc1 | 0.46 | 0.34 | – | – | 8.7 | 0.13 | 0.25 | 5.9 | – | – | 0.15 | – | – | –
CC1(C)S[C@@H]2C(NC(=O)C(N)c3ccc(O)cc3)C(=O)N2C1C(=O)O (stereo partly specified) | 0.31 | 3.4 | 0.5 | 17 | 1.3 | 0.25 | 3.3 | 1.1 | – | – | 0.66 | – | – | –
O=C(O)Cc1ccccc1Nc1c(Cl)cccc1Cl | 0.19 | 1.4 | 1.39 | 16.8 | 1 | 0.22 | 3.5 | 1.4 | 0.32 | – | – | 8.5 | – | –
O=C(O)P(=O)(O)O | 0.65 | 3.62 | – | – | – | 0.5 | 2.1 | 4.7 | – | – | – | – | – | –
COCc1c(-c2ccc(F)cc2)c(=CC[C@@H](O)C[C@@H](O)CC(=O)O)c(C(C)C)nc1=C(C)C | – | – | 3 | 27 | 1.8 | 0.33 | 2.9 | 1.8 | – | – | – | – | – | –
O=C(c1ccc(F)cc1)C1CCN(CCn2c(=O)[nH]c3ccccc3c2=O)CC1 | – | 24.7 | – | 3.8 | – | – | – | 12 | – | 0.01 | 0.0948 | – | – | –
CC(=O)CC(c1ccccc1)c1c(O)c2ccccc2oc1=O (stereo unspecified) | 0.28 | 0.3 | 0.24 | 0.17 | 39 | 0.13 | – | – | – | 0.405 | – | – | – | –
CCC1(c2cccc(O)c2)CCCCN(C)C1 (stereo unspecified) | – | – | 4.4 | 58.4 | 2 | 3.3 | 28 | 1.7 | – | – | – | – | 0.73 | –
COCCOC(=O)C1=C(C)NC(C)=C(C(=O)OC(C)C)C1c1cccc([N+](=O)[O-])c1 (stereo unspecified) | 3 | 18 | 5.5 | 19.6 | 1.2 | 1.1 | – | 1.3 | 3.62 | 0.03 | 0.03 | 33 | – | 0.095
CC(C)C[C@H](NC(=O)C(NC(=O)c1cccc(-c2ccccc2)n1)[C@@H](C)O)B(O)O (stereo partly specified) | – | – | 18.1 | 3.17 | 50.6 | 0.87 | 0.29 | 42.1 | – | – | – | – | – | –
Cc1ncc2n1-c1ccc(Cl)cc1C(c1ccccc1F)=NC2 | 1.1 | 35.2 | 2.6 | 90 | 3.5 | 1.1 | 5.3 | 3.1 | 3 | 0.04 | 0.0223 | 22.3 | – | 0.146
COc1cccc2c1C(=O)c1c(O)c3c(c(O)c1C2=O)C[C@@](O)(C(=O)CO)C[C@@H]3O[C@H]1C[C@H](N)[C@H](O)[C@H](C)O1 | 31.6 | 7.93 | 5.5 | 32.4 | 24 | 22 | 15 | 32 | – | – | – | – | – | –
O=C1c2c(O)ccc(O)c2C(=O)c2c(NCCNCCO)ccc(NCCNCCO)c21 | 26.6 | 10 | – | – | 25 | 12 | 7.9 | 53 | – | – | – | – | 0.25 | –
NC[C@H]1O[C@H](O[C@H]2[C@H](O)[C@@H](O[C@H]3O[C@H](CO)[C@@H](O)[C@H](N)[C@H]3O)[C@H](N)C[C@@H]2N)[C@H](N)C[C@@H]1O | – | – | 0.68 | 15.7 | 2.4 | 0.23 | 1.6 | 2 | – | – | – | – | 1 | –
CN[C@@H](C)Cc1ccccc1 | – | – | 9 | 126 | 16 | 4.3 | 4.4 | 12 | – | 0.92 | – | – | 0.85 | –
O=C1CN=C(c2ccccc2Cl)c2cc([N+](=O)[O-])ccc2N1 | 2.49 | 24 | 3.1 | 70.5 | 55 | 2.9 | 0.88 | 38 | 6.8 | – | 0.18 | 14.3 | – | 0.121
C[C@H]1[C@H](OC(=O)CCC(=O)O)O[C@@H]2O[C@@]3(C)CC[C@H]4[C@H](C)CC[C@@H]1[C@@]24OO3 | – | 44 | – | 212 | 0.32 | – | 1070 | 0.22 | – | 0.22 | 0.181 | – | 0.25 | –
NC(=O)OC[C@@H]1C(=NC(=O)C(NOCC(=O)O)c2csc(N)n2)C(=O)N1S(=O)(=O)O (stereo partly specified) | 0.1 | 5.5 | 0.1 | 22 | 2 | 0.18 | 1.5 | 1.6 | 0.12 | 0.7 | 0.89 | 4.5 | 0.72 | 0.76
CC(C)NCC(O)COc1ccc(CCOCC2CC2)cc1 (stereo unspecified) | 8.2 | 20 | 12 | 154 | 24 | 4.8 | 3.4 | 17 | – | 0.54 | 0.47 | – | – | –
